Results reported in patent publication US10918648B2, “Estrogen receptor modulator combinations” (The Regents of the University of California, priority 2016, dated 2021).

What was measured:
[1] = system: Tamoxifen-resistant human MCF-7 breast cancer cells; test: Endocrine-resistant breast cancer cell proliferation in vitro; assay type: cell-based; settings: 72 hrs; 50 nM Palbociclib, 10 nM S128, or both; P<0.001 vs control and 100 nM tamoxifen; FIG. 10
Experimental: Tamoxifen-resistant human MCF-7 breast cancer cells were treated in vitro with control vehicle (CON), 100 nM tamoxifen (TAM), 50 nM Palbociclib (Pb) or 10 nM S128 or with Palbociclib in combination with S128 (S128+Pb) over 72 hrs. […] (FIG. 10)

estrogen receptor = target: T1, estrogen receptor (Homo sapiens, UniProt P03372); test: Specific [3H]estradiol-17β binding by MCF-7 parental cells; settings: 2 nM [3H]estradiol-17β, compounds at 10 μM, FIG. 5A
T1 construct: endogenous in cells; host or cells: MCF-7 parental (MCF-7/CON) human breast cancer cells
T1 sequence (P03372 1-595): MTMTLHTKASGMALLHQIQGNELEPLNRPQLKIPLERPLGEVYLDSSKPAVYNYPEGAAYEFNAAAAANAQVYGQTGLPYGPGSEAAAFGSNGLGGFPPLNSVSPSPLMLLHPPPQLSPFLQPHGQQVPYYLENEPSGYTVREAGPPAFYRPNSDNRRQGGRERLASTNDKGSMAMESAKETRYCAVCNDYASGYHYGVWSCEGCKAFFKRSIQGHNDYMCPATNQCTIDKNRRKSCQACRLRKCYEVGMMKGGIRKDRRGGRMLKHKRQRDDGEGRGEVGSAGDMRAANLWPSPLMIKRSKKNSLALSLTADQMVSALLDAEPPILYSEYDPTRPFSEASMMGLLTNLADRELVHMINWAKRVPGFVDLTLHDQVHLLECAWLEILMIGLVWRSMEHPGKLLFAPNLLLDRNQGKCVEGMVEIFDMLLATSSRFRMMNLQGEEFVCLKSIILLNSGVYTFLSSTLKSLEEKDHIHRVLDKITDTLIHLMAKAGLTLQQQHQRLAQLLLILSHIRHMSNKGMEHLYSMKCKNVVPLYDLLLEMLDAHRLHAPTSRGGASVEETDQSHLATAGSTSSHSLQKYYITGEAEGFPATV
Experimental: Specific estradiol binding: Specific estradiol-17β (E2) binding was assessed in MCF-7 parental breast cancer cells as before (14-16). […] MCF-7 cells were incubated with 2 nM [^3H]estradiol-17β and antiestrogens (all at 10 μM concentration; numbers Si to S15), with ICI 182,780 (ICI; fulvestrant) used as a control (n=3). Compounds S1-S14 are test compounds different from the exemplified compounds described herein.

Compound	endocrine-resistant breast cancer cell proliferation [1]	specific binding of [3H]estradiol-17β (estrogen receptor)	specific binding of [3H]estradiol-17β (estrogen receptor; listed as S15)
C[C@]12C[C@H](Oc3ccc(N)c(C(F)(F)F)c3)[C@@H]3c4ccc(O)cc4CC[C@H]3[C@@H]1CC[C@@H]2O [JD128, (8S,9S,11S,13S,14S,17S)-11-(4-Amino-3-(trifluoromethyl)phenoxy)-13-methyl-7,8,9,11,12,13,14,15,16,17-decahydro-6H-cyclopenta[a]phenanthrene-3,17-diol]	significantly different from control		
C[C@]12C[C@H](Oc3ccc(N)cc3)[C@@H]3c4ccc(O)cc4CC[C@H]3[C@@H]1CC[C@@H]2O [JD105, (8S,9S,11S,13S,14S,17S)-11-(4-aminophenoxy)-13-methyl-7,8,9,11,12,13,14,15,16,17-decahydro-6H-cyclopenta[a]phenanthrene-3,17-diol]		suppressed	suppressed effectively
